# Experimental data published in ChEMBL document CHEMBL1201862, “PubChem BioAssay data set” (2004).
#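 A five-concentration, 48-hour dose response in 96-well plates underlies each endpoint, interpolated linearly between surrounding concentrations. GI50 is the concentration that inhibits growth by half.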 The source made the active and inactive calls. No stated cut-off is given here; in the data, active = GI50 up to about 1.1 µM and inactive = higher.
# Experiments:
# Assay in all cases: inhibition of tumour cell growth, NCI panel, 48 h
# COLO 205 = test system: COLO 205
# HOP-92 = test system: HOP-92
# DLD-1 = test system: DLD-1
# RPMI-8226 = test system: RPMI-8226
# K562 = test system: K562
# SK-MEL-28 = test system: SK-MEL-28
# MOLT-4 = test system: MOLT-4
# HCT-15 = test system: HCT-15
# SK-MEL-5 = test system: SK-MEL-5
# HL-60 = test system: HL-60
# KM12 = test system: KM12
# SW-620 = test system: SW-620
# 786-0 = test system: 786-0
# SK-OV-3 = test system: SK-OV-3
# M14 = test system: M14
# DMS-114 = test system: DMS-114
# HOP-62 = test system: HOP-62
# HCC 2998 = test system: HCC 2998
# TK-10 = test system: TK-10
# UO-31 = test system: UO-31
# SR = test system: SR
# HCT-116 = test system: HCT-116
# Malme-3M = test system: Malme-3M
# SNB-19 = test system: SNB-19
# SF-539 = test system: SF-539
# M19-MEL = test system: M19-MEL
# SNB-78 = test system: SNB-78
# RXF 393 = test system: RXF 393
# OVCAR-4 = test system: OVCAR-4
# OVCAR-8 = test system: OVCAR-8
# DMS-273 = test system: DMS-273
# SNB-75 = test system: SNB-75
# CCRF-CEM = test system: CCRF-CEM
# KM-20L2 = test system: KM-20L2
# NCI-H226 = test system: NCI-H226
# XF498 = test system: XF498
# OVCAR-3 = test system: OVCAR-3
# NCI-H522 = test system: NCI-H522
# OVCAR-5 = test system: OVCAR-5
# U-251 = test system: U-251
# SF-295 = test system: SF-295
# SN12C = test system: SN12C
# UACC-62 = test system: UACC-62
# NCI-H23 = test system: NCI-H23
# A549 = test system: A549
# SF-268 = test system: SF-268
# LXFL 529 = test system: LXFL 529
# ACHN = test system: ACHN
# NCI-H460 = test system: NCI-H460
# IGROV-1 = test system: IGROV-1
# HT-29 = test system: HT-29
# LOX IMVI = test system: LOX IMVI
# CAKI-1 = test system: CAKI-1
# SK-MEL-2 = test system: SK-MEL-2
# UACC-257 = test system: UACC-257
# EKVX = test system: EKVX
# HOP-18 = test system: HOP-18
# A498 = test system: A498
structure (smiles),measurement,setting,value
CCOC1=C2N=C(C(CC)c3ccc(F)cc3)N=C2C(=O)c2ccccc21 (stereo not drawn),GI50,COLO 205,22.3 µM (inactive)
same,GI50,HOP-92,17.7 µM (inactive)
same,GI50,DLD-1,7.55 µM (inactive)
same,GI50,RPMI-8226,23.8 µM (inactive)
same,GI50,K562,20.6 µM (inactive)
same,GI50,SK-MEL-28,36.5 µM (inactive)
same,GI50,MOLT-4,18 µM (inactive)
same,GI50,HCT-15,18.6 µM
same,GI50,SK-MEL-5,13.9 µM (inactive)
same,GI50,HL-60,35.3 µM (inactive)
same,GI50,KM12,21.9 µM (inactive)
same,GI50,SW-620,36.4 µM (inactive)
same,GI50,786-0,29.9 µM (inactive)
same,GI50,SK-OV-3,32.1 µM (inactive)
same,GI50,M14,26 µM (inactive)
same,GI50,DMS-114,22.4 µM (inactive)
same,GI50,HOP-62,46.3 µM (inactive)
same,GI50,HCC 2998,29.9 µM (inactive)
same,GI50,TK-10,22 µM (inactive)
same,GI50,UO-31,13.2 µM (inactive)
same,GI50,SR,21.3 µM (inactive)
same,GI50,HCT-116,23.9 µM (inactive)
same,GI50,Malme-3M,23.3 µM (inactive)
same,GI50,SNB-19,51.4 µM (inactive)
same,GI50,SF-539,16.3 µM (inactive)
same,GI50,M19-MEL,24 µM (inactive)
same,GI50,SNB-78,27.8 µM (inactive)
same,GI50,RXF 393,11.6 µM (inactive)
same,GI50,OVCAR-4,19.7 µM (inactive)
same,GI50,OVCAR-8,30.5 µM (inactive)
same,GI50,DMS-273,25.6 µM (inactive)
same,GI50,SNB-75,21 µM (inactive)
same,GI50,CCRF-CEM,40 µM (inactive)
same,GI50,KM-20L2,19 µM (inactive)
same,GI50,NCI-H226,16 µM (inactive)
same,GI50,XF498,17.5 µM (inactive)
same,GI50,OVCAR-3,32.9 µM (inactive)
same,GI50,NCI-H522,22.3 µM (inactive)
same,GI50,OVCAR-5,26.6 µM (inactive)
same,GI50,U-251,21.7 µM (inactive)
same,GI50,SF-295,21 µM (inactive)
same,GI50,SN12C,16.3 µM (inactive)
same,GI50,UACC-62,10.9 µM (inactive)
same,GI50,NCI-H23,25.3 µM (inactive)
same,GI50,A549,22.1 µM (inactive)
same,GI50,SF-268,19.7 µM (inactive)
same,GI50,LXFL 529,23.9 µM (inactive)
same,GI50,ACHN,19.1 µM (inactive)
same,GI50,NCI-H460,26.5 µM (inactive)
same,GI50,IGROV-1,23.5 µM (inactive)
same,GI50,HT-29,19.2 µM (inactive)
same,GI50,LOX IMVI,16.2 µM (inactive)
same,GI50,CAKI-1,22 µM (inactive)
same,GI50,SK-MEL-2,18.7 µM (inactive)
same,GI50,UACC-257,20.2 µM (inactive)
same,GI50,EKVX,26.9 µM (inactive)
O=C1C2C=CC(n3[nH]c(=O)n(Cc4ccccc4)c3=O)CC2C(=O)N1c1ccc(Br)cc1 (stereo not drawn),GI50,COLO 205,> 100 µM (inactive)
same,GI50,HOP-92,> 100 µM (inactive)
same,GI50,DLD-1,> 100 µM (inactive)
same,GI50,RPMI-8226,> 100 µM (inactive)
same,GI50,K562,> 100 µM (inactive)
same,GI50,SK-MEL-28,> 100 µM (inactive)
same,GI50,MOLT-4,> 100 µM (inactive)
same,GI50,HCT-15,> 100 µM
same,GI50,SK-MEL-5,> 100 µM (inactive)
same,GI50,HL-60,> 100 µM (inactive)
same,GI50,HOP-18,> 100 µM (inactive)
same,GI50,KM12,> 100 µM (inactive)
same,GI50,SW-620,> 100 µM (inactive)
same,GI50,786-0,> 100 µM (inactive)
same,GI50,SK-OV-3,> 100 µM (inactive)
same,GI50,M14,> 100 µM (inactive)
same,GI50,DMS-114,> 100 µM (inactive)
same,GI50,HOP-62,> 100 µM (inactive)
same,GI50,HCC 2998,> 100 µM (inactive)
same,GI50,TK-10,> 100 µM (inactive)
same,GI50,UO-31,> 100 µM (inactive)
same,GI50,SR,> 100 µM (inactive)
same,GI50,HCT-116,> 100 µM (inactive)
same,GI50,Malme-3M,> 100 µM (inactive)
same,GI50,SNB-19,> 100 µM (inactive)
same,GI50,A498,56.8 µM (inactive)
same,GI50,SF-539,> 100 µM (inactive)
same,GI50,M19-MEL,> 100 µM (inactive)
same,GI50,SNB-78,> 100 µM (inactive)
same,GI50,RXF 393,> 100 µM (inactive)
same,GI50,OVCAR-4,> 100 µM (inactive)
same,GI50,OVCAR-8,> 100 µM (inactive)
same,GI50,DMS-273,> 100 µM (inactive)
same,GI50,SNB-75,47.1 µM (inactive)
same,GI50,CCRF-CEM,> 100 µM (inactive)
same,GI50,KM-20L2,> 100 µM (inactive)
same,GI50,NCI-H226,> 100 µM (inactive)
same,GI50,OVCAR-3,> 100 µM (inactive)
same,GI50,NCI-H522,> 100 µM (inactive)
same,GI50,OVCAR-5,> 100 µM (inactive)
same,GI50,U-251,> 100 µM (inactive)
same,GI50,SF-295,> 100 µM (inactive)
same,GI50,SN12C,> 100 µM (inactive)
same,GI50,UACC-62,> 100 µM (inactive)
same,GI50,NCI-H23,> 100 µM (inactive)
same,GI50,A549,> 100 µM (inactive)
same,GI50,SF-268,> 100 µM (inactive)
same,GI50,LXFL 529,> 100 µM (inactive)
same,GI50,ACHN,> 100 µM (inactive)
same,GI50,NCI-H460,> 100 µM (inactive)
same,GI50,IGROV-1,> 100 µM (inactive)
same,GI50,HT-29,> 100 µM (inactive)
same,GI50,LOX IMVI,> 100 µM (inactive)
same,GI50,CAKI-1,> 100 µM (inactive)
same,GI50,SK-MEL-2,> 100 µM (inactive)
same,GI50,UACC-257,> 100 µM (inactive)
same,GI50,EKVX,> 100 µM (inactive)
COc1cccc(N2C(Cl)C(=O)C2c2c[nH]c3ccccc23)c1 (stereo not drawn),GI50,COLO 205,> 100 µM (inactive)
same,GI50,HOP-92,> 100 µM (inactive)
same,GI50,RPMI-8226,> 100 µM (inactive)
same,GI50,K562,> 100 µM (inactive)
same,GI50,SK-MEL-28,> 100 µM (inactive)
same,GI50,MOLT-4,> 100 µM (inactive)
same,GI50,SK-MEL-5,> 100 µM (inactive)
same,GI50,HL-60,> 100 µM (inactive)
same,GI50,KM12,> 100 µM (inactive)
same,GI50,SW-620,> 100 µM (inactive)
same,GI50,SK-OV-3,> 100 µM (inactive)
same,GI50,M14,> 100 µM (inactive)
same,GI50,DMS-114,> 100 µM (inactive)
same,GI50,HOP-62,> 100 µM (inactive)
same,GI50,TK-10,> 100 µM (inactive)
same,GI50,UO-31,42.8 µM (inactive)
same,GI50,SR,> 100 µM (inactive)
same,GI50,HCT-116,> 100 µM (inactive)
same,GI50,Malme-3M,80.9 µM (inactive)
same,GI50,SNB-19,> 100 µM (inactive)
same,GI50,M19-MEL,> 100 µM (inactive)
same,GI50,RXF 393,> 100 µM (inactive)
same,GI50,OVCAR-4,> 100 µM (inactive)
same,GI50,OVCAR-8,> 100 µM (inactive)
same,GI50,SNB-75,> 10 µM (inactive)
same,GI50,CCRF-CEM,> 100 µM (inactive)
same,GI50,KM-20L2,> 100 µM (inactive)
same,GI50,XF498,> 100 µM (inactive)
same,GI50,OVCAR-3,> 100 µM (inactive)
same,GI50,NCI-H522,> 100 µM (inactive)
same,GI50,OVCAR-5,46.1 µM (inactive)
same,GI50,U-251,> 100 µM (inactive)
same,GI50,SF-295,> 100 µM (inactive)
same,GI50,SN12C,> 100 µM (inactive)
same,GI50,UACC-62,> 100 µM (inactive)
same,GI50,NCI-H23,> 100 µM (inactive)
same,GI50,A549,> 100 µM (inactive)
same,GI50,SF-268,> 100 µM (inactive)
same,GI50,LXFL 529,> 100 µM (inactive)
same,GI50,NCI-H460,> 100 µM (inactive)
same,GI50,IGROV-1,> 100 µM (inactive)
same,GI50,HT-29,> 100 µM (inactive)
same,GI50,SK-MEL-2,> 100 µM (inactive)
same,GI50,UACC-257,> 100 µM (inactive)
same,GI50,EKVX,> 100 µM (inactive)
